From patent US7291621B2, “Substituted biaryl amides C5a receptor modulators” (Neurogen Corporation, priority 2002, dated 2007)
Read-outs that look alike come from different tables or passages of the source.

Molecular target: T1, C5a receptor (Homo sapiens, UniProt P21730)
T1 construct: endogenous in cells; host or cells: U937 cells differentiated with 1 mM dibutyryl cAMP
T1 sequence (P21730 1-350): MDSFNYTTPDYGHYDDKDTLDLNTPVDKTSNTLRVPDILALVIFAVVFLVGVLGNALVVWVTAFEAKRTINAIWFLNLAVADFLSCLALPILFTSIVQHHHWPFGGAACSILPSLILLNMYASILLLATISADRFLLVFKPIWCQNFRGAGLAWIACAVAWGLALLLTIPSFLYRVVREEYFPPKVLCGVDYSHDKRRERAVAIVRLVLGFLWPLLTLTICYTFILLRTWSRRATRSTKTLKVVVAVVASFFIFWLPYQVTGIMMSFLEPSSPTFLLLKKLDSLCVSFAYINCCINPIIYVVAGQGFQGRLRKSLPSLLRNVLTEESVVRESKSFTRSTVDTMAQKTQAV
Test: standard assay of C5a receptor mediated calcium mobilization
Type: cell-based
Settings: asterisk = tested in C5a receptor mediated calcium mobilization assay, read-out: Ca2+ Mob.
Experimental: U937 cells are grown in differentiation media (1 mM dibutyrl cAMP in RPMI 1640 medium containing 10% fetal bovine serum) for 48 hrs at 37° C. then reseeded onto 96-well plates suitable for use in a FLIPR™ Plate Reader (Molecular Devices Corp., Sunnyvale Calif.). Cells are grown an additional 24 hours (to 70-90% confluence) before the assay. The cells are then washed once with Krebs Ringer solution. FLUO-3 calcium sensitive dye (Molecular Probes, Inc. Eugene, Oreg.) is added to 10 μg/mL and incubated with the cells at room temperature for 1 to 2 hours. The 96 well plates are then washed to remove excess dye. Fluorescence responses, measured by excitation at 480 nm and emission at 530 nm, are monitored upon the addition of human C5a to the cells to a final concentration of 0.01-30.0 nM, using the FLIPR™ device (Molecular Devices).
The calcium mobilization assay described above may be readily adapted for identifying test compounds that have agonist or antagonist activity at the human C5a receptor.
For example, in order to identify antagonist compounds, differentiated U937 cells are washed and incubated with Fluo-3 dye as described above. One hour prior to measuring the fluorescence signal, a subset of the cells is incubated with 1 μM of at least one compound to be tested. The fluorescence response upon the subsequent addition of 0.3 nM (final concentration) human recombinant C5a is monitored using the FLIPR™ plate reader. Antagonist compounds elicit at least a 2-fold decrease in the fluorescence response relative to that measured in the presence of human C5a alone. Preferred antagonist compounds elicit at least a 5-fold, preferably at least a 10-fold, and more preferably at least a 20-fold decrease in the fluorescence response relative to that measured in the presence of human C5a alone.

| SMILES | Ki (Table I) | Ki (Table III) |
| --- | --- | --- |
| Cc1ccc(-c2ccccc2C(=O)N(Cc2ccccc2)Cc2ccc(O)cc2Cl)s1 [compound 149, N-benzyl-N-(2-chloro-4-hydroxybenzyl)-2-(5-methylthien-2-yl)benzamide] | < 1000 nM |  |
| O=C(c1cc(Cl)ccc1-c1ccccc1)N(Cc1ccc(F)cc1)C1Cc2ccccc2C1 [compound 136, 4-chloro-N-(indan-2-yl)-N-(4-fluorobenzyl)-1,1′-biphenyl-2-carboxamide] | < 1000 nM |  |
| COc1ccc2ccccc2c1C(=O)N(CCc1ccccc1)C1Cc2ccccc2C1 [compound 220, 2-Methoxy-naphthalene-1-carboxylic acid indan-2-yl-phenethyl-amide] |  | < 1000 nM |
| COc1cccc(-c2ccccc2C(=O)N(Cc2ccc(C)cc2)C2Cc3ccccc3C2)c1 [compound 89, N-(indan-2-yl)-3′-methoxy-N-(4-methylbenzyl)-1,1′-biphenyl-2-carboxamide] | < 1000 nM |  |
| Cc1ccc(-c2ccccc2C(=O)N(Cc2ccccc2)Cc2cc(C)c(O)c(C)c2)s1 [compound 147, N-benzyl-N-(4-hydroxy-3,5-dimethylbenzyl)-2-(5-methylthien-2-yl)benzamide] | < 1000 nM |  |
| Cc1ccc(-c2ccccc2)c(C(=O)N(Cc2ccccc2)C2Cc3ccccc3C2)c1 [compound 116, N-benzyl-N-(indan-2-yl)-4-methyl-1,1′-biphenyl-2-carboxamide] | < 1000 nM |  |
| Cc1cccc(-c2ccccc2)c1C(=O)N(Cc1ccccc1)C1Cc2ccccc2C1 [compound 113, N-benzyl-N-(indan-2-yl)-3-methyl-1,1′-biphenyl-2-carboxamide] | < 1000 nM |  |
| COc1cccc(CN(C(=O)c2cc(Cl)ccc2-c2ccccc2)C2Cc3ccccc3C2)c1 [compound 140, 4-chloro-N-(indan-2-yl)-N-(3-methoxybenzyl)-1,1′-biphenyl-2-carboxamide] | < 1000 nM |  |
| Cc1ccc(-c2ccccc2C(=O)N(Cc2cccc(F)c2)C2Cc3ccccc3C2)cc1 [compound 95, N-(indan-2-yl)-N-(3-fluorobenzyl)-4′-methyl-1,1′-biphenyl-2-carboxamide] | < 1000 nM |  |
| O=C(c1ccccc1-c1ccc(C(F)(F)F)cc1)N(Cc1ccccc1)Cc1ccccc1 [compound 42, N,N-dibenzyl-4′-(trifluoromethyl)-1,1′-biphenyl-2-carboxamide] | < 1000 nM |  |
| Cc1cccc(-c2ccccc2)c1C(=O)N(CCc1ccccc1)C1Cc2ccccc2C1 [compound 130, N-(indan-2-yl)-3-methyl-N-(2-phenylethyl)-1,1′-biphenyl-2-carboxamide] | < 1000 nM |  |
| COc1cccc(-c2ccccc2C(=O)N(Cc2ccc(F)cc2)C2Cc3ccccc3C2)c1 [compound 92, N-(indan-2-yl)-N-(4-fluorobenzyl)-3′-methoxy-1,1′-biphenyl-2-carboxamide] | < 1000 nM |  |
| O=C(c1ccccc1-c1ccccc1)N(Cc1ccccc1)C1Cc2ccccc2C1 [compound 60, N-benzyl-N-(indan-2-yl)-1,1′-biphenyl-2-carboxamide] | < 1000 nM |  |
| Cc1cccc(-c2ccccc2)c1C(=O)N(Cc1ccc2c(c1)OCO2)C1Cc2ccccc2C1 [compound 129, N-(1,3-benzodioxol-5-ylmethyl)-N-(indan-2-yl)-3-methyl-1,1′-biphenyl-2-carboxamide] | < 1000 nM |  |
| O=C(c1ccccc1-c1cccc(Cl)c1)N(Cc1ccccc1)Cc1ccccc1 [compound 49, N,N-dibenzyl-3′-chloro-1,1′-biphenyl-2-carboxamide] | < 1000 nM |  |
| O=C(c1c(O)cccc1-c1ccccc1)N(Cc1ccccc1)C1Cc2ccccc2C1 [compound 69, N-benzyl-N-(indan-2-yl)-3-hydroxy-1,1′-biphenyl-2-carboxamide] | < 1000 nM |  |
| COc1ccc(-c2ccc(C)s2)c(C(=O)N(Cc2ccccc2)C2Cc3ccccc3C2)c1 [compound 70, N-benzyl-N-(indan-2-yl)-5-methoxy-2-(5-methylthien-2-yl)benzamide] | < 1000 nM |  |
| COc1cc(CN(C(=O)c2ccccc2-c2ccsc2)C2Cc3ccccc3C2)cc(OC)c1 [compound 84, N-(indan-2-yl)-N-(3,5-dimethoxybenzyl)-2-thien-3-ylbenzamide] | < 1000 nM |  |
| O=C(c1c(O)ccc2ccccc12)N(Cc1ccccc1F)C1Cc2ccccc2C1 [compound 237, 2-Hydroxy-naphthalene-1-carboxylic acid (2-fluoro-benzyl)-indan-2-yl-amide] |  | < 1000 nM |

| SMILES | Ki (Table I) | Ki (Table III) |
| --- | --- | --- |
| COc1ccccc1-c1ccccc1C(=O)N(Cc1ccccc1)Cc1ccccc1 [compound 43, N,N-dibenzyl-2′-methoxy-1,1′-biphenyl-2-carboxamide] | < 1000 nM |  |
| O=C(c1cc(Cl)ccc1-c1ccccc1)N(CCc1ccccc1)C1Cc2ccccc2C1 [compound 141, 4-chloro-N-(indan-2-yl)-N-(2-phenylethyl)-1,1′-biphenyl-2-carboxamide] | < 1000 nM |  |
| Cc1ccc(CN(C(=O)c2ccccc2-c2ccccc2F)C2Cc3ccccc3C2)cc1 [compound 90, N-(indan-2-yl)-2′-fluoro-N-(4-methylbenzyl)-1,1′-biphenyl-2-carboxamide] | < 1000 nM |  |
| Cc1ccc(CN(C(=O)c2ccccc2-c2ccccc2)C2Cc3ccccc3C2)cc1 [compound 75, N-(indan-2-yl)-N-(4-methylbenzyl)-1,1′-biphenyl-2-carboxamide] | < 1000 nM |  |
| COc1ccc(CN(C(=O)c2cc(Cl)ccc2-c2ccccc2)C2Cc3ccccc3C2)cc1 [compound 138, 4-chloro-N-(indan-2-yl)-N-(4-methoxybenzyl)-1,1′-biphenyl-2-carboxamide] | < 1000 nM |  |
| Cc1csc(-c2ccccc2C(=O)N(Cc2ccccc2)C2Cc3ccccc3C2)c1 [compound 59, N-benzyl-N-(indan-2-yl)-2-(4-methylthien-2-yl)benzamide] | < 1000 nM |  |
| O=C(c1ccccc1-c1ccccc1)N(Cc1cccc(F)c1)C1Cc2ccccc2C1 [compound 77, N-(indan-2-yl)-N-(3-fluorobenzyl)-1,1′-biphenyl-′-carboxamide] | < 1000 nM |  |
| COc1cccc(CN(C(=O)c2cc(OC)ccc2-c2ccccc2)C2Cc3ccccc3C2)c1 [compound 103, N-(indan-2-yl)-4-methoxy-N-(3-methoxybenzyl)-1,1′-biphenyl-2-carboxamide] | < 1000 nM |  |
| CCSc1ccc(-c2ccccc2C(=O)N(Cc2ccccc2)Cc2ccccc2)cc1 [compound 38, N,N-dibenzyl-4′-(ethylthio)-1,1′-biphenyl-2-carboxamide] | < 1000 nM |  |
| O=C(c1ccccc1-c1ccccc1)N(Cc1ccccc1)Cc1ccc(OC(F)F)cc1 [compound 151, N-benzyl-N-[4-(difluoromethoxy)benzyl]-1,1′-biphenyl-2-carboxamide] | < 1000 nM |  |
| Cc1ccccc1CN(C(=O)c1c(C)cccc1-c1ccccc1)C1Cc2ccccc2C1 [compound 120, N-(indan-2-yl)-3-methyl-N-(2-methylbenzyl)-1,1′-biphenyl-2-carboxamide] | < 1000 nM |  |
| Cc1cccc(CN(C(=O)c2cc(Cl)ccc2-c2ccccc2)C2Cc3ccccc3C2)c1 [compound 132, 4-chloro-N-(indan-2-yl)-N-(3-methylbenzyl)-1,1′-biphenyl-2-carboxamide] | < 1000 nM |  |
| Cc1cccc(-c2ccccc2)c1C(=O)N(Cc1cccc(F)c1)C1Cc2ccccc2C1 [compound 124, N-(indan-2-yl)-N-(3-fluorobenzyl)-3-methyl-1,1′-biphenyl-2-carboxamide] | < 1000 nM |  |
| Cc1cccc(CN(C(=O)c2ccccc2-c2ccccc2F)C2Cc3ccccc3C2)c1 [compound 99, N-(indan-2-yl)-2′-fluoro-N-(3-methylbenzyl)-1,1′-biphenyl-2-carboxamide] | < 1000 nM |  |
| O=C(c1cc(Cl)ccc1-c1ccccc1)N(Cc1ccccc1)C1Cc2ccccc2C1 [compound 117, N-benzyl-4-chloro-N-(indan-2-yl)-1,1′-biphenyl-2-carboxamide] | < 1000 nM |  |
| Cc1cccc(CN(C(=O)c2c(C)ccc3ccccc23)C2Cc3ccccc3C2)c1 [compound 230, 2-Methyl-naphthalene-1-carboxylic acid (3-methyl-benzyl)-indan-2-yl-amide] |  | < 1000 nM |
| Cc1ccc(-c2ccccc2C(=O)N(Cc2ccccc2)Cc2ccccc2)cc1 [compound 55, N,N-dibenzyl-4′-methyl-1,1′-biphenyl-2-carboxamide] | < 1000 nM |  |
| COc1cccc(CN(C(=O)c2c(OC)cccc2-c2ccccc2)C2Cc3ccccc3C2)c1 [compound 101, N-(indan-2-yl)-3-methoxy-N-(3-methoxybenzyl)-1,1′-biphenyl-2-carboxamide] | < 1000 nM |  |
